SMILES strings stand for the structures.

The test in a line: Antagonist activity at human recombinant CCR5 by cell-cell fusion assay.

For the compound `CC(=O)N1CCC(CCN2C[C@@H]3CN(C(=O)c4c(C)ncnc4C)C[C@@H]3C2)(c2cccc(F)c2)CC1` [1-(4-(2-((3aR,6aS)-5-(4,6-dimethylpyrimidine-5-carbonyl)hexahydropyrrolo[3,4-c]pyrrol-2(1H)-yl)ethyl)-4-(3-fluorophenyl)piperidin-1-yl)ethanone], the IC50 is over 2.5 µM.
Take `Cc1ncnc(C)c1C(=O)N1C[C@H]2CN(CCC3(c4ccccc4)CN(C(=O)C4CCC(F)(F)CC4)C3)C[C@H]2C1` [((3aR,6aS)-5-(2-(1-(4,4-difluorocyclohexanecarbonyl)-3-phenylazetidin-3-yl)ethyl)hexahydropyrrolo[3,4-c]pyrrol-2(1H)-yl)(4,6-dimethylpyrimidin-5-yl)methanone]: the IC50 is 0.01 µM.
On to `Cc1ncnc(C)c1C(=O)N1C[C@H]2CN(CCC3(c4ccccc4)CCN(C(=O)C(C)(C)C)C3)C[C@H]2C1` (stereo partly drawn) [1-(3-(2-((3aR,6aS)-5-(4,6-dimethylpyrimidine-5-carbonyl)hexahydropyrrolo[3,4-c]pyrrol-2(1H)-yl)ethyl)-3-phenylpyrrolidin-1-yl)-2,2-dimethylpropan-1-one], for which the IC50 turned out to be 1.94 µM.
As for `Cc1cc(C(F)(F)F)nc(C)c1C(=O)N1C[C@H]2CN(CCC3(c4ccccc4)CN(C(=O)C4CC(F)(F)C4)C3)C[C@H]2C1` [((3aR,6aS)-5-(2-(1-(3,3-difluorocyclobutanecarbonyl)-3-phenylazetidin-3-yl)ethyl)hexahydropyrrolo[3,4-c]pyrrol-2(1H)-yl)(2,4-dimethyl-6-(trifluoromethyl)pyridin-3-yl)methanone], the figure is 0.003 µM.
As for `Cc1ncnc(C)c1C(=O)N1C[C@H]2CN(CCC3(c4ccccc4)CN(C(=O)C4CC(F)(F)C4)C3)C[C@H]2C1` [((3aR,6aS)-5-(2-(1-(3,3-difluorocyclobutanecarbonyl)-3-phenylazetidin-3-yl)ethyl)hexahydropyrrolo[3,4-c]pyrrol-2(1H)-yl)(4,6-dimethylpyrimidin-5-yl)methanone], the figure is 0.093 µM; as for `Cc1nc(C(F)(F)F)nc(C)c1C(=O)N1C[C@H]2CN(CCC3(c4ccccc4)CN(C(=O)C4CC(F)(F)C4)C3)C[C@H]2C1` [((3aR,6aS)-5-(2-(1-(3,3-difluorocyclobutanecarbonyl)-3-phenylazetidin-3-yl)ethyl)hexahydropyrrolo[3,4-c]pyrrol-2(1H)-yl)(4,6-dimethyl-2-(trifluoromethyl)pyrimidin-5-yl)methanone], 0.168 µM.
`Cc1cc(C(F)(F)F)nc(C)c1C(=O)N1C[C@H]2CN(CCC3(c4ccccc4)CN(C(=O)C4CCC(F)(F)CC4)C3)C[C@H]2C1` [((3aR,6aS)-5-(2-(1-(4,4-difluorocyclohexanecarbonyl)-3-phenylazetidin-3-yl)ethyl)hexahydropyrrolo[3,4-c]pyrrol-2(1H)-yl)(2,4-dimethyl-6-(trifluoromethyl)pyridin-3-yl)methanone]: the IC50 amounted to 0.002 µM.
For `Cc1cc(C#N)nc(C)c1C(=O)N1C[C@H]2CN(CCC3(c4ccccc4)CN(C(=O)C4CC(F)(F)C4)C3)C[C@H]2C1` [5-((3aR,6aS)-5-(2-(1-(3,3-difluorocyclobutanecarbonyl)-3-phenylazetidin-3-yl)ethyl)octahydropyrrolo[3,4-c]pyrrole-2-carbonyl)-4,6-dimethylpicolinonitrile], the IC50 is 0.001 µM.
With `Cc1cc(C#N)nc(C)c1C(=O)N1C[C@H]2CN(CCC3(c4cccc(F)c4)CCN(C(=O)C(C)(C)C)CC3)C[C@H]2C1` [5-((3aR,6aS)-5-(2-(4-(3-fluorophenyl)-1-pivaloylpiperidin-4-yl)ethyl)octahydropyrrolo[3,4-c]pyrrole-2-carbonyl)-4,6-dimethylpicolinonitrile], the IC50 was determined as 0.037 µM.
For `Cc1ncnc(C)c1C(=O)N1C[C@H]2CN(CCC3(c4cccc(F)c4)CCN(C(=O)C(C)C)CC3)C[C@H]2C1` [1-(4-(2-((3aR,6aS)-5-(4,6-dimethylpyrimidine-5-carbonyl)hexahydropyrrolo[3,4-c]pyrrol-2(1H)-yl)ethyl)-4-(3-fluorophenyl)piperidin-1-yl)-2-methylpropan-1-one], the half-inhibitory concentration (IC50) stood at 0.16 µM.
As for `Cc1ncnc(C)c1C(=O)N1C[C@H]2CN(CCC3(c4ccccc4)CN(C(=O)C(C)(C)CO)C3)C[C@H]2C1` [1-(3-(2-((3aR,6aS)-5-(4,6-dimethylpyrimidine-5-carbonyl)hexahydropyrrolo[3,4-c]pyrrol-2(1H)-yl)ethyl)-3-phenylazetidin-1-yl)-3-hydroxy-2,2-dimethylpropan-1-one], the figure is 0.31 µM; as for `Cc1nc(C(F)(F)F)nc(C)c1C(=O)N1C[C@H]2CN(CCC3(c4ccccc4)CN(C(=O)C4CCOC4)C3)C[C@H]2C1` (stereo partly drawn) [(4,6-dimethyl-2-(trifluoromethyl)pyrimidin-5-yl)((3aR,6aS)-5-(2-(3-phenyl-1-(tetrahydrofuran-3-carbonyl)azetidin-3-yl)ethyl)hexahydropyrrolo[3,4-c]pyrrol-2(1H)-yl)methanone], 0.092 µM.
With `Cc1ccnc(C)c1C(=O)N1C[C@H]2CN(CCC3(c4ccccc4)CN(C(=O)C4CCC(F)(F)CC4)C3)C[C@H]2C1` [((3aR,6aS)-5-(2-(1-(4,4-difluorocyclohexanecarbonyl)-3-phenylazetidin-3-yl)ethyl)hexahydropyrrolo[3,4-c]pyrrol-2(1H)-yl)(2,4-dimethylpyridin-3-yl)methanone], the IC50 came out at 0.015 µM.
For the compound `Cc1cc(C#N)nc(C)c1C(=O)N1C[C@H]2CN(CCC3(c4ccccc4)CCN(C(=O)C4CCCC4)C3)C[C@H]2C1` (stereo partly drawn) [5-((3aR,6aS)-5-(2-(1-(cyclopentanecarbonyl)-3-phenylpyrrolidin-3-yl)ethyl)octahydropyrrolo[3,4-c]pyrrole-2-carbonyl)-4,6-dimethylpicolinonitrile], the IC50 is 0.085 µM.
`Cc1ncnc(C)c1C(=O)N1C[C@H]2CN(CCC3(c4ccccc4)CN(S(=O)(=O)C4CCCC4)C3)C[C@H]2C1` [((3aR,6aS)-5-(2-(1-(cyclopentylsulfonyl)-3-phenylazetidin-3-yl)ethyl)hexahydropyrrolo[3,4-c]pyrrol-2(1H)-yl)(4,6-dimethylpyrimidin-5-yl)methanone]: the IC50 is 0.458 µM.
As for `Cc1ncnc(C)c1C(=O)N1C[C@H]2CN(CCC3(c4ccccc4)CN(C(=O)C(C)(C)C)C3)C[C@H]2C1` [1-(3-(2-((3aR,6aS)-5-(4,6-dimethylpyrimidine-5-carbonyl)hexahydropyrrolo[3,4-c]pyrrol-2(1H)-yl)ethyl)-3-phenylazetidin-1-yl)-2,2-dimethylpropan-1-one], the figure is 0.186 µM; as for `Cc1ncnc(C)c1C(=O)N1C[C@H]2CN(CCC3(c4cccc(F)c4)CCN(C(=O)CC(C)(C)C)CC3)C[C@H]2C1` [1-(4-(2-((3aR,6aS)-5-(4,6-dimethylpyrimidine-5-carbonyl)hexahydropyrrolo[3,4-c]pyrrol-2(1H)-yl)ethyl)-4-(3-fluorophenyl)piperidin-1-yl)-3,3-dimethylbutan-1-one], 0.339 µM.
Turning to `Cc1ncnc(C)c1C(=O)N1C[C@H]2CN(CCC3(c4ccccc4)CN(C(=O)C4CCOC4)C3)C[C@H]2C1` (stereo partly drawn) [(4,6-dimethylpyrimidin-5-yl)((3aR,6aS)-5-(2-(3-phenyl-1-(tetrahydrofuran-3-carbonyl)azetidin-3-yl)ethyl)hexahydropyrrolo[3,4-c]pyrrol-2(1H)-yl)methanone], the IC50 is 0.559 µM.
Regarding `Cc1nc(C(F)(F)F)nc(C)c1C(=O)N1C[C@H]2CN(CCC3(c4ccccc4)CN(C(=O)C4CCC(F)(F)CC4)C3)C[C@H]2C1` [((3aR,6aS)-5-(2-(1-(4,4-difluorocyclohexanecarbonyl)-3-phenylazetidin-3-yl)ethyl)hexahydropyrrolo[3,4-c]pyrrol-2(1H)-yl)(4,6-dimethyl-2-(trifluoromethyl)pyrimidin-5-yl)methanone], the IC50 turned out to be 0.005 µM.
In the case of `Cc1ncnc(C)c1C(=O)N1C[C@H]2CN(CCC3(c4cccc(F)c4)CCN(C(=O)C(C)(C)C)CC3)C[C@H]2C1` [1-(4-(2-((3aR,6aS)-5-(4,6-dimethylpyrimidine-5-carbonyl)hexahydropyrrolo[3,4-c]pyrrol-2(1H)-yl)ethyl)-4-(3-fluorophenyl)piperidin-1-yl)-2,2-dimethylpropan-1-one] it was 0.129 µM; in that of `Cc1cc(C#N)nc(C)c1C(=O)N1C[C@H]2CN(CCC3(c4ccccc4)CCN(C(=O)C(C)(C)C)C3)C[C@H]2C1` (stereo partly drawn) [4,6-dimethyl-5-((3aR,6aS)-5-(2-(3-phenyl-1-pivaloylpyrrolidin-3-yl)ethyl)octahydropyrrolo[3,4-c]pyrrole-2-carbonyl)picolinonitrile], 0.36 µM; in that of `Cc1ncnc(C)c1C(=O)N1C[C@H]2CN(CCC3(c4ccccc4)CN(C(=O)CC4CCCC4)C3)C[C@H]2C1` [2-cyclopentyl-1-(3-(2-((3aR,6aS)-5-(4,6-dimethylpyrimidine-5-carbonyl)hexahydropyrrolo[3,4-c]pyrrol-2(1H)-yl)ethyl)-3-phenylazetidin-1-yl)ethanone], 0.136 µM.
For the compound `Cc1ncnc(C)c1C(=O)N1C[C@H]2CN(CCC3(c4cccc(F)c4)CCN(C(=O)C(C)(C)CO)CC3)C[C@H]2C1` [1-(4-(2-((3aR,6aS)-5-(4,6-dimethylpyrimidine-5-carbonyl)hexahydropyrrolo[3,4-c]pyrrol-2(1H)-yl)ethyl)-4-(3-fluorophenyl)piperidin-1-yl)-3-hydroxy-2,2-dimethylpropan-1-one], the IC50 is 1 µM.

The IC50 is the concentration at which inhibition is half-maximal.

Values taken from BindingDB's records for doi:10.1016/j.bmcl.2009.11.072 (Roche Palo Alto, 2010).
